This passage reports EC50 and CC50 results from patent publication US20210220356A1, “DIHYDROPYRIMIDINE DERIVATIVES AND USES THEREOF IN THE TREATMENT OF HBV INFECTION OR OF HBV-INDUCED DISEASES” (Janssen Sciences Ireland Unlimited Company, priority 2018, published 2021).

One series concerns HBV. Kind of series: HBV inhibitory activity in HepG2.2.15 cells (HBV DNA in culture medium by q-PCR). Format: cell-based. The following applies: HepG2.2.15 cells, 40,000 cells/well, 6 days of compound treatment, HBV DNA in culture medium by q-PCR, highest concentration 10 uM, read-out: EC50. The method, then: (§1) • HepG2.2.15 (the HepG2.2.15 cell line can be produced by transfection of the HepG2 cell line as described in Sells, Chen, and Acs 1987 (Proc. Natl. Acad. Sci. USA 84: 1005-1009), and the HepG2 cell line is available from ATCC® under number HB-8065™)
(§2) Seed the cell HepG2.2.15 cells into 96-well plate in 2% FBS culture medium at the density of 40,000 cells/well and 5,000 cells/well for HBV inhibitory activity and cytotoxicity determination, respectively. After seeding, incubate the cell plates at 37° C., 5% CO2 overnight. The next day, medium containing compounds is added to the cell to treat the cells for 6 days with medium refreshed once in the middle of the treatment. 8 dose points with 3 folds dilution of each compound were adopted and the highest concentration of the compounds is 10 uM and 100 uM for HBV inhibitory activity and cytotoxicity determination, respectively.
The HBV DAN change in the cell culture medium induced by the compounds is measured by q-PCR method. Briefly, the HBV DNA in the culture medium is extracted using QIAamp 96 DNA Blood Kit according to the manual and then quantified by q-PCR using the primers and probe in the table below.
(§3) EC50 and CC50 values are calculated by the GRAPHPAD PRISM software.

For another series, the system named is HepG2.2.15 cells. Kind of series: Cytotoxicity determination in HepG2.2.15 cells (CCK-8). Format: cell-based. The following applies: HepG2.2.15 cells, 5,000 cells/well, 6 days of compound treatment, CCK-8 absorbance 450 nm, highest concentration 100 uM. The method, then:
as §1, §2
After 6 days of compounds treatment, add 20 μl CCK-8 reagents to each well of cytotoxicity assay plates, incubate the plate at 37° C., 5% CO2 for 2.5 h and measure the absorbance at 450 nm wavelength, at the same time read the absorbance at 630 nm wavelength as reference.
as §3

Read-outs that look alike come from different tables or passages of the source.

`COC(=O)C1=C(C2CCc3nc([C@H]4CC[C@H](C(=O)O)CC4)oc3C2)NC(c2nccs2)=NC1c1ccc(F)c(F)c1Cl` (single isomer, unassigned) [Compound 86d, (trans)-4-(6-(6-(2-chloro-3,4-difluorophenyl)-5-(methoxycarbonyl)-2-(thiazol-2-yl)-3,6-dihydropyrimidin-4-yl)-4,5,6,7-tetrahydrobenzo[d]oxazol-2-yl)cyclohexanecarboxylic acid]: the EC50 with HBV turned out to be 0.0614 µM. The CC50 with HepG2.2.15 cells turned out to be 4.3 µM.
The corresponding values for `CCOC(=O)C1=C(C2CCc3nn(CCC(=O)O)cc3C2)NC(c2nccs2)=NC1c1cccc(F)c1C` (single isomer, unassigned) [Compound 41b, 3-(5-(5-(Ethoxycarbonyl)-6-(3-fluoro-2-methylphenyl)-2-(thiazol-2-yl)-3,6-dihydropyrimidin-4-yl)-4,5,6,7-tetrahydro-2H-indazol-2-yl)propanoic acid] are 0.292 µM and 6.6 µM.
Consider `CCOC(=O)C1=C(C2CCc3nc(CCC(=O)O)sc3C2)NC(c2nccs2)=NC1c1ccc(F)c(F)c1Cl` (single isomer, unassigned) [Compound 60c, 3-(6-(6-(2-Chloro-3,4-difluorophenyl)-5-(ethoxycarbonyl)-2-(thiazol-2-yl)-3,6-dihydropyrimidin-4-yl)-4,5,6,7-tetrahydrobenzo[d]thiazol-2-yl)propanoic acid], for which, in the series on HBV, the EC50 turned out to be 0.0135 µM. Further, it took 5.5 µM to reach half-maximal cytotoxicity in the series with HepG2.2.15 cells (CC50).
For `COC(=O)C1=C(C2CCc3nn(CCCC(=O)O)cc3C2)NC(c2nccs2)=NC1c1ccc(F)c(F)c1Cl` (single isomer, unassigned) [Compound 74c, 4-(5-(6-(2-chloro-3,4-difluorophenyl)-5-(methoxycarbonyl)-2-(thiazol-2-yl)-3,6-dihydropyrimidin-4-yl)-4,5,6,7-tetrahydro-2H-indazol-2-yl)butanoic acid], the half-maximal effective concentration (EC50) with HBV was determined as 0.0091 µM. Moreover, the CC50 with HepG2.2.15 cells turned out to be 18.2 µM.
For `COC(=O)C1=C(C2CCc3nn(C(C)(C)CC(=O)O)cc3C2)NC(c2nccs2)=NC1c1ccc(F)c(F)c1Cl` (single isomer, unassigned) [Compound 82c, 3-(5-(-6-(2-chloro-3,4-difluorophenyl)-5-(methoxycarbonyl)-2-(thiazol-2-yl)-3,6-dihydropyrimidin-4-yl)-4,5,6,7-tetrahydro-2H-indazol-2-yl)-3-methylbutanoic acid] the same measures were 0.0065 µM and 15.1 µM.
Consider `COC(=O)C1=C(C2CCc3[nH]ncc3C2)NC(c2nccs2)=NC1c1ccc(F)c(F)c1Cl` (single isomer, unassigned) [Compound 65b, Methyl 4-(2-chloro-3,4-difluorophenyl)-6-(4,5,6,7-tetrahydro-1H-indazol-5-yl)-2-(thiazol-2-yl)-1,4-dihydropyrimidine-5-carboxylate], for which the EC50 in the series on HBV was determined as 2.67 µM. This compound also displayed a CC50 with HepG2.2.15 cells of 6.3 µM.
Regarding `CCOC(=O)C1=C(C2CCc3nn(CCC(=O)O)cc3C2)NC(c2nccs2)=NC1c1cccc(F)c1Br` (single isomer, unassigned) [Compound 42d, 3-(5-(6-(2-bromo-3-fluorophenyl)-5-(ethoxycarbonyl)-2-(thiazol-2-yl)-3,6-dihydropyrimidin-4-yl)-4,5,6,7-tetrahydro-2H-indazol-2-yl)propanoic acid], in the series with HBV, the EC50 was 0.0242 µM. In the series with HepG2.2.15 cells, this compound showed a CC50 of 12.7 µM.
`CCOC(=O)C1=C(C2CCc3cn(CCC(=O)O)nc3C2)NC(c2nccs2)=NC1c1ccc(F)c(F)c1Cl` (single isomer, unassigned) [Compound 61a, 3-(6-(6-(2-Chloro-3,4-difluorophenyl)-5-(ethoxycarbonyl)-2-(thiazol-2-yl)-3,6-dihydropyrimidin-4-yl)-4,5,6,7-tetrahydro-2H-indazol-2-yl)propanoic acid]: the EC50 in the series with HBV was 0.0612 µM. In addition, the midpoint of cytotoxicity in the series with HepG2.2.15 cells, the CC50, lay at 4.8 µM.
As for `COC(=O)C1=C(C2CCc3nn(CCC(=O)O)cc3C2)NC(c2nccs2)=NC1c1cccc(F)c1Cl` (single isomer, unassigned) [Compound 44c, 3-(5-(6-(2-Chloro-3-fluorophenyl)-5-(methoxycarbonyl)-2-(thiazol-2-yl)-3,6-dihydropyrimidin-4-yl)-4,5,6,7-tetrahydro-2H-indazol-2-yl)propanoic acid], in the series on HBV, the EC50 worked out at 0.0329 µM. The same compound had a CC50 in the series on HepG2.2.15 cells of 36.7 µM.
Turning to `CCOC(=O)C1=C(C2CCc3oc(CCC(=O)O)nc3C2)NC(c2nccs2)=NC1c1ccc(F)c(F)c1Cl` (single isomer, unassigned) [Compound 57f, 3-(5-(6-(2-Chloro-3,4-difluorophenyl)-5-(ethoxycarbonyl)-2-(thiazol-2-yl)-3,6-dihydropyrimidin-4-yl)-4,5,6,7-tetrahydrobenzo[d]oxazol-2-yl)propanoic acid], the EC50 with HBV turned out to be 0.0908 µM. For the same compound, the CC50 in the series with HepG2.2.15 cells turned out to be 12.6 µM.
For the compound `CCOC(=O)C1=C(C2CCc3nn(CCC(=O)O)cc3C2)NC(c2nccs2)=NC1c1ccc(F)cc1Br` (single isomer, unassigned) [Compound 39c, 3-(5-(6-(2-Bromo-4-fluorophenyl)-5-(ethoxycarbonyl)-2-(thiazol-2-yl)-3,6-dihydropyrimidin-4-yl)-4,5,6,7-tetrahydro-2H-indazol-2-yl)propanoic acid], the EC50 with HBV worked out at 0.0145 µM. Besides, the CC50 in the series on HepG2.2.15 cells turned out to be 11.9 µM.
The corresponding values for `CCOC(=O)C1=C(C2Cc3cn(CCC(=O)O)nc3C(C)(C)C2)NC(c2nccs2)=NC1c1ccc(F)c(F)c1Cl` (centres unmarked) [Compound 55c, 3-(5-(6-(2-chloro-3,4-difluorophenyl)-5-(ethoxycarbonyl)-2-(thiazol-2-yl)-3,6-dihydropyrimidin-4-yl)-7,7-dimethyl-4,5,6,7-tetrahydro-2H-indazol-2-yl)propanoic acid] are 0.0095 µM and 7.1 µM.
For `COC(=O)C1=C(C2CCc3nn(CCC(=O)O)cc3C2)NC(c2nccs2)=NC1c1cccc(F)c1Br` (single isomer, unassigned) [Compound 45c, 3-(5-(6-(2-Bromo-3-fluorophenyl)-5-(methoxycarbonyl)-2-(thiazol-2-yl)-3,6-dihydropyrimidin-4-yl)-4,5,6,7-tetrahydro-2H-indazol-2-yl)propanoic acid] the same measures were 0.0473 µM and 32.2 µM.
Consider `CCOC(=O)C1=C(C2CCc3nn(CCCC(=O)O)cc3C2)NC(c2nccs2)=NC1c1ccc(F)c(F)c1Cl` (single isomer, unassigned) [Compound 50c, 4-(5-(6-(2-Chloro-3,4-difluorophenyl)-5-(ethoxycarbonyl)-2-(thiazol-2-yl)-3,6-dihydropyrimidin-4-yl)-4,5,6,7-tetrahydro-2H-indazol-2-yl)butanoic acid], for which the EC50 in the series with HBV is < 0.0046 µM. Further, the CC50 in the series with HepG2.2.15 cells is 11.9 µM.
For `CCOC(=O)C1=C(C2CCc3nn(CC(C)(C)C(=O)O)cc3C2)NC(c2nccs2)=NC1c1ccc(F)c(F)c1Cl` (single isomer, unassigned) [Compound 53c, 3-(5-(6-(2-Chloro-3,4-difluorophenyl)-5-(ethoxycarbonyl)-2-(thiazol-2-yl)-3,6-dihydropyrimidin-4-yl)-4,5,6,7-tetrahydro-2H-indazol-2-yl)-2,2-dimethylpropanoic acid], the EC50 with HBV is < 0.0046 µM. The compound also registered a CC50 in the series with HepG2.2.15 cells of 10.9 µM.
For the compound `COC(=O)C1=C(C2CCc3nc([C@H]4CC[C@H](C(=O)O)CC4)oc3C2)NC(c2nccs2)=NC1c1ccc(F)c(F)c1Cl` (single isomer, unassigned) [Compound 86b, (trans)-4-(6-(6-(2-chloro-3,4-difluorophenyl)-5-(methoxycarbonyl)-2-(thiazol-2-yl)-3,6-dihydropyrimidin-4-yl)-4,5,6,7-tetrahydrobenzo[d]oxazol-2-yl)cyclohexanecarboxylic acid], in the series with HBV (Hepatitis B virus, HepG2.2.15, 144 h), the EC50 worked out at 0.064 µM. In the series with HepG2.2.15 cells, half-maximal cytotoxicity (CC50) was put at 8.7 µM.
As for `COC(=O)C1=C(C2CCc3nn(CCC(=O)O)cc3C2)NC(c2nccs2)=NC1c1ccc(F)cc1Br` (single isomer, unassigned) [Compound 48d, 3-(5-(6-(2-Bromo-4-fluorophenyl)-5-(methoxycarbonyl)-2-(thiazol-2-yl)-3,6-dihydropyrimidin-4-yl)-4,5,6,7-tetrahydro-2H-indazol-2-yl)propanoic acid], the EC50 in the series with HBV was 0.03 µM. For the same compound, in the series on HepG2.2.15 cells, the CC50 was 34.3 µM.
For `CCOC(=O)C1=C(C2CCc3nn(C(C)CC(=O)O)cc3C2)NC(c2nccs2)=NC1c1ccc(F)c(F)c1Cl` (single isomer, unassigned) [Compound 52b, 3-(5-(6-(2-chloro-3,4-difluorophenyl)-5-(ethoxycarbonyl)-2-(thiazol-2-yl)-3,6-dihydropyrimidin-4-yl)-4,5,6,7-tetrahydro-2H-indazol-2-yl)butanoic acid], in the series on HepG2.2.15 cells, the CC50 was determined as 5.8 µM.
